Measurements as given in patent publication US9896718B2, “Herbicide tolerant cotton event pDAB4468.18.07.1” (Dow AgroSciences LLC, priority 2012, dated 2018).
Where two headings read alike, the source gives them in different places.

Tests used:
non-transformed cotton = conditions: rates much lower than the lowest rate tested (1120 g ae/ha); known; cited from earlier work
[1] = test system: cotton event pDAB4468.18.07.1; experiment: Tolerance to 2,4-D in field trials (percent visual injury after postemergence application); format: in vivo, Gossypium hirsutum; conditions: for Percent visual injury: postemergence, 2-4 leaf cotton, field
Description: The application of 2,4-D on cotton plants at this stage of development represents a herbicide application timing typically utilized to achieve satisfactory weed control by cotton growers.
2,4-D tolerance was measured by assessing cotton plants for injury at 0-1 day after application (DAA), 7-8 DAA, 12-16 DAA, and 24-32 DAA. Measurements for the 0-1 day time increment were taken from 6-24 hours after the application. […] The ratings were a composite score for any herbicide symptomology including epinasty, chlorosis, leaf necrosis and plant death. Herbicide symptomology present at 0-1 DAA was primarily epinasty and symptoms at later evaluations were primarily chlorosis and necrosis.
(§1) Field trials were conducted at eleven locations across the United States in typical cotton producing areas of Alabama, Arkansas, California, Georgia, Louisiana, Mississippi, North Carolina, South Carolina, and Tennessee. Trials were designed with four replications per treatment. Each replication was separated by a bare-soil alley 10-15 feet wide. Plot size for individual treatments was 2 rows by 20 feet long with rows typically spaced 36-40 inches apart. Experimental treatments consisted of cotton event pDAB4468.18.07.1 sprayed with 2,4-D amine (Weedar 64™, NuFarm, Burr Ridge, Ill.) at either 0, 1120, 2240, or 4480 grams acid equivalent per hectare (g ae/ha) applied in 15 gallons per acre of final spray solution. A non-transformed cotton comparator treatment was not included in these experiments since treatment with 2,4-D at rates much lower than the lowest rate tested (1120 g ae/ha) are known to result in plant death.

[2] = test system: cotton event pDAB4468.18.07.1; experiment: Agronomic characterization in field trials with and without herbicide application; format: in vivo, Gossypium hirsutum; conditions: standard field application rates, 2010 field trials
From the text: The agronomic characteristics of cotton event pDAB4468.18.07.1 were quantified in field trials conducted across geographically different locations throughout the cotton belt in 2010. These studies compared the agronomic performance of cotton event pDAB4468.18.07.1 (with and without applications of the herbicides 2,4-D and glufosinate) to the non-transgenic near-isoline control, Coker 310. No agronomically meaningful unintended differences were observed between cotton event pDAB4468.18.07.1 and the Coker 310 control plants. […] Additionally, the agronomic performance of cotton event pDAB4468.18.07.1 was not altered as a result of the application of the herbicides, 2,4-D and glufosinate, as compared to the cotton event pDAB4468.18.07.1 plants which were not sprayed with the herbicide treatments. […]
Seeds of cotton event pDAB4468.18.07.1 and seeds of the near-isoline control line, Coker 310, were planted at a rate of 80 seeds per 20 ft row with a row spacing of 34-38 inches (86.36 cm-96.52 cm). […] The measured agronomic characteristics were equivalent for cotton event pDAB4468.18.07.1 as compared to the Coker 310 near-isoline control plants for all of the agronomic characteristics measured and statistically analyzed. […]

[3] = test system: cotton event pDAB4468.18.07.1; conditions: for % Injury: cotton event pDAB4468.18.07.1, 3 leaf stage
Description: The tolerance of cotton event pDAB4468.18.07.1 to postemergence applications of the pyridyloxyacetic acid herbicides, triclopyr and fluroxypyr, was studied in greenhouse trials. Herbicide tolerance was assessed following a single postemergence application of triclopyr or fluroxypyr.
Seeds from cotton event pDAB4468.18.07.1 were heat treated in a water bath at 82.5° C. for 1 minute and then planted in metro mix 360 media and grown in a greenhouse. The temperatures in the greenhouse averaged 27° C. and the photoperiod was set at 16 hours of light and eight hours of dark, with maximum light intensity. Plants were allowed to grow until the 3 leaf stage of development and a non-randomized study was conducted with three replications and three treatments for each herbicide. Plants were sprayed in a track sprayer calibrated to deliver 187 L/ha of the commercial formulations of triclopyr (Garton 4™, Dow AgroSciences, Indianapolis, Ind.) and fluroxypyr (Starane™, Dow AgroSciences, Indianapolis, Ind.). A non-transformed Coker 310 variety of cotton was used as a negative control. Visual injury assessment was taken 3 DAA (days after application) and 11 DAA comparing each rate of herbicide. Injury was assessed visually as percentage of epinastic cotton-plant foliage using a linear percentage scale […] where 0% represents no visible herbicide injury and 100% represents plant death.

[4] = test system: non-transformed Coker 310 variety of cotton; experiment: Tolerance to triclopyr and fluroxypyr in greenhouse trials (percent visual injury), negative control plants; format: in vivo; conditions: 3 leaf stage
Description: Seeds from cotton event pDAB4468.18.07.1 were heat treated in a water bath at 82.5° C. for 1 minute and then planted in metro mix 360 media and grown in a greenhouse. The temperatures in the greenhouse averaged 27° C. and the photoperiod was set at 16 hours of light and eight hours of dark, with maximum light intensity. Plants were allowed to grow until the 3 leaf stage of development and a non-randomized study was conducted with three replications and three treatments for each herbicide. Plants were sprayed in a track sprayer calibrated to deliver 187 L/ha of the commercial formulations of triclopyr (Garton 4™, Dow AgroSciences, Indianapolis, Ind.) and fluroxypyr (Starane™, Dow AgroSciences, Indianapolis, Ind.). A non-transformed Coker 310 variety of cotton was used as a negative control. Visual injury assessment was taken 3 DAA (days after application) and 11 DAA comparing each rate of herbicide. Injury was assessed visually as percentage of epinastic cotton-plant foliage using a linear percentage scale (1-100%) where 0% represents no visible herbicide injury and 100% represents plant death.

[5] = test system: cotton event pDAB4468.18.07.1; experiment: Tolerance to glufosinate in field trials (percent visual injury after postemergence application); format: in vivo, Gossypium hirsutum; conditions: for Percent visual injury: postemergence, 6-8 leaf cotton, field
Description: Glufosinate tolerance was measured by assessing cotton plants for injury at 2-4 days after application (DAA), 7-9 DAA, 13-19 DAA and 22-29 DAA. […] The ratings were a composite score for any herbicide symptomology including chlorosis, leaf necrosis, stunting and plant death. Herbicide symptomology (where present) was primarily chlorosis and necrosis.
as §1, with “glufosinate ammonium (Ignite 280 SL™, Bayer, Research Triangle, N.C.)” for “2,4-D amine (Weedar 64™, NuFarm, Burr Ridge, Ill.)”, “542, 1084,” for “1120, 2240,”, “2168” for “4480”, “glufosinate” for “2,4-D”, “(542” for “(1120”, “would be expected” for “are known”

CNC.O=C(O)COc1ccc(Cl)cc1Cl [2,4-D]
result of treatment of non-transformed cotton (non-transformed cotton): plant death
herbicide injury noted in the experiments ([1]; 1120-4480 g ae/ha, with the exception of transient epinasty 0-1 DAA): no agronomically-significant herbicide injury
Percent visual injury ([1]; 1120 g ae/ha, 0-1 DAA): 5.0%
Percent visual injury ([1]; 1120 g ae/ha, 7-8 DAA): 2.3%
Percent visual injury ([1]; 1120 g ae/ha, 12-16 DAA): 1.1%
Percent visual injury ([1]; 1120 g ae/ha, 24-32 DAA): 0.0%
Percent visual injury ([1]; 2240 g ae/ha, 0-1 DAA): 11.7%
Percent visual injury ([1]; 2240 g ae/ha, 7-8 DAA): 4.9%
Percent visual injury ([1]; 2240 g ae/ha, 12-16 DAA): 2.7%
Percent visual injury ([1]; 2240 g ae/ha, 24-32 DAA): 0.4%
crop injury beyond the 7-8 DAA evaluation interval ([1]; 4480 g ae/ha (>4× rate required for broad spectrum weed control)): little crop injury
Percent visual injury ([1]; 4480 g ae/ha, 0-1 DAA): 21.0%
Percent visual injury ([1]; 4480 g ae/ha, 7-8 DAA): 15.1%
Percent visual injury ([1]; 4480 g ae/ha, 12-16 DAA): 8.0%
Percent visual injury ([1]; 4480 g ae/ha, 24-32 DAA): 2.2%
agronomic performance of cotton event after herbicide application vs unsprayed plants [2]: not altered

Nc1c(Cl)c(F)nc(OCC(=O)O)c1Cl [Fluroxypyr, fluroxypyr]
level of herbicide to which tolerance is provided ([3]; in vivo): up to 280 g ae/ha

O=C(O)COc1nc(Cl)c(Cl)cc1Cl [Triclopyr, triclopyr]
% Injury ([4]; 140 g ae/ha, 3 DAA): 33.8 a %
% Injury ([4]; 140 g ae/ha, 11 DAA): 36.3 b %
% Injury ([4]; 280 g ae/ha, 3 DAA): 33.8 a %
% Injury ([4]; 280 g ae/ha, 11 DAA): 40.0 ab %
% Injury ([4]; 560 g ae/ha, 3 DAA): 36.3 a %
% Injury ([4]; 560 g ae/ha, 11 DAA): 48.8 a %
tolerance of the plants ([3]; 3 DAA, greenhouse): moderate levels of tolerance
% Injury ([3]; 140 g ae/ha, 3 DAA, greenhouse): 11.8 b %
% Injury ([3]; 140 g ae/ha, 11 DAA, greenhouse): 3.0 a %
% Injury ([3]; 280 g ae/ha, 3 DAA, greenhouse): 17.0 a %
% Injury ([3]; 280 g ae/ha, 11 DAA, greenhouse): 6.3 a %
% Injury ([3]; 560 g ae/ha, 3 DAA, greenhouse): 19.3 a %
% Injury ([3]; 560 g ae/ha, 11 DAA, greenhouse): 3.5 a %
tolerance of the plants compared to the non-transformed control ([3]; by 11 DAA, recovered from the initial epinastic response, greenhouse): robust tolerance

CP(=O)(O)CCC(N)C(=O)O (stereo not shown) [glufosinate]
herbicide injury noted in the experiments ([5]; 542-2168 g ae/ha, with the exception of transient chlorosis at 2168 g ae/ha at 2-4 & 7-9 DAA): no agronomically-significant herbicide injury
Percent visual injury ([5]; 542 g ae/ha, 2-4 DAA): 3.1%
Percent visual injury ([5]; 542 g ae/ha, 7-9 DAA): 2.3%
Percent visual injury ([5]; 542 g ae/ha, 13-19 DAA): 0.1%
Percent visual injury ([5]; 542 g ae/ha, 22-29 DAA): 0.1%
Percent visual injury ([5]; 1084 g ae/ha, 2-4 DAA): 7.6%
Percent visual injury ([5]; 1084 g ae/ha, 7-9 DAA): 4.8%
Percent visual injury ([5]; 1084 g ae/ha, 13-19 DAA): 0.1%
Percent visual injury ([5]; 1084 g ae/ha, 22-29 DAA): 0.0%
crop injury beyond the 7-9 DAA evaluation interval ([5]; 2168 g ae/ha (>4× rate required for broad spectrum weed control)): little crop injury
Percent visual injury ([5]; 2168 g ae/ha, 2-4 DAA): 14.8%
Percent visual injury ([5]; 2168 g ae/ha, 7-9 DAA): 10.8%
Percent visual injury ([5]; 2168 g ae/ha, 13-19 DAA): 2.2%
Percent visual injury ([5]; 2168 g ae/ha, 22-29 DAA): 0.3%
agronomic performance of cotton event after herbicide application vs unsprayed plants [2]: not altered
